Entries after “also recorded” stand apart in the source; their conditions may differ.
What was measured:
[1] = during spa use (PubChem Compound Database); cited from earlier work
C. cinerea [2] = assay: C. cinerea fruiting body development, solution spread on YMG agar surface before inoculation (Example 5); assay type: cell-based, Coprinopsis cinerea
Protocol: FIG. 9: Effect on C. cinerea fruiting body development by GSK3 inhibitor-LiCl at different concentration. Water or LiCl solution was spread on the surface of YMG agar, before inoculation. After 6-days all dark incubation in 37° C., the plates were transferred to 25° C. with 12-hours light and 12-hours dark cycle (light/dark cycle) for 5-days incubation. […] Initials and hyphal knots formed on the plates treated with 0.75 g/L and 1.5 g/L LiCl respectively.
FIG. 10: Effect on C. cinerea fruiting body development by GSK3 inhibitor-CHIR-99021 HCl at different concentration. Water or CHIR-99021 HCl solution was spread on the surface of YMG agar, before inoculation. After the mycelium reached the edge of plates, the plates were transferred to 25° C. with light/dark cycle for 6-days incubation.
FIG. 11: Effect on C. cinerea fruiting body development by GSK3 activator-Cisplatin at different concentration. Water or Cisplatin solution was spread on the surface of YMG agar, before inoculation. After the mycelium reached the edge of plates, the plates were transferred to 25° C. with light/dark cycle. […] Young fruiting body developed on the control YMG plates treated with water.
Two GSK3 inhibitors (LiCl and CHIR-99021 HCl) and one GSK3 activator (Cisplatin) were tested in Coprinopsis cinerea, and one GSK3 inhibitor (LiCl) was tested in Pleurotus djamor (commonly known as the pink oyster mushroom). Belonging to the same order Agaricales, these two tested mushroom species are of two different families, Psathyrellaceae and Pleurotaceae, respectively.
Water or LiCl solution was spread on the surface of YMG agar before inoculation of C. cinerea. After 6-days all dark incubation in 37° C., the plates were transferred to 25° C. with 12-hours light and 12-hours dark cycle (light/dark cycle) for 5-days incubation. […] Initials and hyphal knots were formed on the plates treated with 0.75 g/L and 1.5 g/L LiCl respectively.
Water or CHIR-99021 HCl solution was spread on the surface of YMG agar before inoculation of C. cinerea. After the mycelium reached the edge of plates, the plates were transferred to 25° C. with light/dark cycle for 6-days incubation.
Water or Cisplatin solution was spread on the surface of YMG agar before C. cinerea inoculation. After the mycelium reached the edge of plates, the plates were transferred to 25° C. with light/dark cycle. […] Young fruiting body developed on the control YMG plates treated with water.

C. cinerea [3] = assay: Mycelial growth rate of LiCl treated C. cinerea on YMG agar; assay type: cell-based, Coprinopsis cinerea
Protocol: FIG. 3: Mycelial growth of C. cinerea with different doses of LiCl, biological triplicates were used for mean calculation.
The mycelial growth rate was measured for the LiCl treated C. cinerea. Biological triplicates were cultivated on YMG agar plates at 37° C. in darkness, treated with different doses of LiCl. The mycelium growth was recorded for 4 days.

C. cinerea [4] = assay: LiCl added at different developmental stages of C. cinerea; assay type: cell-based, Coprinopsis cinerea
Protocol: FIG. 4: The development of C. cinerea treated with 0.1 ml of 3 g/L LiCl at different stage.
FIG. 5: Life cycle of the mushroom-forming fungi, and the sensitive windows to the GSK-3 inhibitors (stages in grey). […] These stages are sensitive windows.
The effect of LiCl at different developmental stages of C. cinerea were tested. 0.1 ml of 3 g/L LiCl were added to the agar plate.

[5] = test system: GSK-3 and its target genes; assay: Quantitative real-time PCR of GSK-3 and its target genes under LiCl treatment; assay type: cell-based, Coprinopsis cinerea
Protocol: FIG. 6: The gene expression levels are indicated by the abundance of segments on the cDNA, by real-time PCR. […] Glycogen synthase (CC1G_01973); GSK-3 protein kinase (CC1G_03802); eukaryotic translation initiation factor 1 (CC1G_03881); Uncharacterized protein with Ricin B-type lectin domain (CC1G_05298); Translation initiation factor eIF2 gamma subunit (CC1G_09429).
The expression levels of targets genes of GSK-3 were measured to explore the mechanism of LiCl. To characterize the gene expression profile changes, quantitative real-time PCR analysis was performed. the kinase and its substrates by Orthologue searching were selected. A total of 83 GSK-3 substrates reported in human and mouse were mapped to the C. cinerea genome, and 52 orthologues were identified. Among them, CC1G_01973, CC1G_03881, and CC1G_09429 were selected for real-time PCR analysis. Samples treated by different doses of LiCl were frozen and homogenized in liquid nitrogen to extract total RNAs. […] Decreased eIF1 gene expression supports that LiCl block the fruiting through inhibiting GSK-3 activity in initiating the translation of key protein. Binding of eIF1 to 40S ribosome is key to maintain an open conformation on 40S ribosomal subunit to initiate translation (Passmore et al. 2007). Low level of eIF1 was also found to lower mRNA translation in Saccharomyces cerevisiae (You et al. 2010).

Pleurotus djamor [6] = assay: Self-healing ability and stability of mycelium blocks; conditions: 2 g/L LiCl in substrate; following 30 days
Protocol: FIG. 8: Comparison of the self-healing ability between the mycelium blocks treated by heating and LiCl. The two group of mycelium blocks (e.g., Pleurotus djamor blocks) were broken in the middle. In each group, 3 blocks were spread with the solution of YMG broth and the other 3 blocks with ddH2O on the broken sites. The two parts of one block were incubated together for 3 days.
The self-healing ability and stability of the living material is tested by comparison of the self-healing ability between the mycelium blocks treated by heating and LiCl. To prepare the demo mycelium blocks, water (as in group “Heat”) or 2 g/L LiCl water solution (as in group “Lithium”), sawdust, wheat bran and calcium carbonate were mixed as substrate and autoclaved the substrate. Then the Pleurotus djamor was inoculated to the substrate, and incubated under 27° C. continuous dark for 7 days. Then 30 g of the mixture of mycelium and substrate were transferred into molds of block, with same volume and pressure. The blocks were incubated under 27° C. continuous dark for another 7 days. Then the blocks of “Heat” group were dried by oven, and the block of “Lithium” group were dried by dehumidifier, to the same mass of the “Heat” group.
The two group of mycelium blocks were broken in the middle. In each group, 3 blocks were spread with the solution of YMG broth and the other 3 blocks with ddH2O on the broken sites. […]

Pleurotus djamor [7] = assay: Pleurotus djamor fruiting body development, LiCl in YMG agar; assay type: cell-based; conditions: 2 g/L LiCl in YMG agar; 10 days dark at 27° C., 10 days light/dark cycle at 25° C.
Protocol: FIG. 12: Effect on Pleurotus djamor fruiting body development by GSK3 inhibitor-LiCl at different concentration. LiCl was added to YMG agar medium before autoclave. After 10-days all dark incubation in 27° C., the plates were transferred to 25° C. with 12-hours light and 12-hours dark cycle (light/dark cycle) for 10-days incubation. Mature fruiting bodies developed on the control plates.
LiCl was added to YMG agar medium before autoclave. After 10-days all dark incubation in 27° C., the plates were transferred to 25° C. with 12-hours light and 12-hours dark cycle (light/dark cycle) for 10-days incubation. Mature fruiting bodies developed on the control plates.

C. cinerea [8] = assay: LiCl clearance and fruiting body formation (Example 3); assay type: cell-based, Coprinopsis cinerea; conditions: washing mycelium and substrate with ddH2O or transfer onto clean substrate
Source text: The LiCl inhibition of C. cinerea mycelium can be relieved by removing LiCl or diluting the concentration of LiCl, for example, by washing the mycelium and substrate with ddH2O, or by transferring the mycelium onto a clean substrate.

[9] = cited from earlier work
C. cinerea [10] = assay: Fruiting body development of C. cinerea on YMG agar with LiCl in or under the agar
Pleurotus eryngii = conditions: cited from earlier work
C. cinerea [11] = assay: C. cinerea on YMG agar treated with CHIR-99021 HCl (Example 2); assay type: cell-based, Coprinopsis cinerea
Protocol: Another GSK-3 inhibitor was used to confirm inhibition of LiCl on GSK-3. C. cinerea was cultivated on YMG agar and treated with water for control group and 1 uM, 100 uM and 500 uM of CHIR-99021 HCl for experimental group.

[12] = different doses of LiCl, real-time PCR

SMILES: [Li] [Lithium]
- Skin absorption [1]: not absorbed through the skin

SMILES: N.N.[Cl][Pt][Cl] [Cisplatin, cis-diamminedichloridoplatinum(II)]
- Fruiting body development stage reached (C. cinerea [2]; 1 ml saturated Cisplatin, 6 days light/dark cycle at 25° C.): had fruiting body and began autolysis

SMILES: [Cl-].[Li+] [LiCl, Lithium chloride]
- Effect on Mycelium growth (C. cinerea [3]; 1.5 g/L LiCl in agar): higher than control; also recorded: Acceleration
- Effect on Mycelium growth (C. cinerea [3]; 3 g/L LiCl in agar): higher than control; also recorded: acceleration in mycelium growth rate
- Effect on Mycelium growth (C. cinerea [3]; 6 g/L LiCl in agar): inhibit the growth of mycelium; also recorded: Retarded
- Further development after LiCl addition (C. cinerea [4]; 0.1 ml of 3 g/L LiCl added at initial): led to the arrest of their development; also recorded: led to inhibition on further development; also recorded: resulted in arrestment in fruiting body development
- Further development after LiCl addition (C. cinerea [4]; 0.1 ml of 3 g/L LiCl added at stage-1 primordium): led to the arrest of their development; also recorded: led to inhibition on further development; also recorded: resulted in arrestment in fruiting body development
- Further development after LiCl addition (C. cinerea [4]; 0.1 ml of 3 g/L LiCl added at stage-2 primordium): could continue to develop into fruiting bodies; also recorded: cannot inhibit the fruiting body development
- Further development after LiCl addition (C. cinerea [4]; 0.1 ml of 3 g/L LiCl added at young fruiting body): could continue to develop into fruiting bodies; also recorded: cannot inhibit the fruiting body development
- Further development after LiCl addition (C. cinerea [4]; LiCl intervention at hyphal knot): resulted in arrestment in fruiting body development
- Further development after LiCl addition (C. cinerea [4]; LiCl intervention at mycelium): resulted in arrestment in fruiting body development
- GSK-3 gene expression ([5]; 3 g/L LiCl mixed in the substrate): general decrease in GSK-3 gene expression
- Expression level of GSK-3 gene and selected GSK-3 target genes [5, 12]: could regulate the expression; also recorded: change the expression level
- eIF1 gene expression [5, 12]: decreased with increase of LiCl concentration
- Initials and fruiting bodies on mycelium blocks (Pleurotus djamor [6]): clear of initials and fruiting bodies
- Fruiting body development stage reached (C. cinerea [2]; 0.375 g/L LiCl, 5 days light/dark cycle at 25° C.): Primordium were formed
- Fruiting body development stage reached (C. cinerea [2]; 0.75 g/L LiCl, 5 days light/dark cycle at 25° C.): Initials
- Fruiting body development stage reached (C. cinerea [2]; 1.5 g/L LiCl, 5 days light/dark cycle at 25° C.): hyphal knots
- Fruiting body development stage reached (C. cinerea [2]; 3 g/L LiCl, 5 days light/dark cycle at 25° C.): arrested in mycelium stage
- Mycelium growth on plate (C. cinerea [2]; 6 g/L LiCl): stopped before reaching the edge of plates
- Fruiting body development stage reached (C. cinerea [2]; 6 g/L LiCl, 5 days light/dark cycle at 25° C.): arrested in mycelium stage
- Fruiting body development (Pleurotus djamor [7]): failed to develop fruiting body
- Fruiting after removing or diluting LiCl (C. cinerea [8]): fruiting bodies develops again
- Solubility [9]: soluble in water, ethanol, acetone, pyridine and nitrobenzene
- Effect on Fruiting body development (C. cinerea [10]; 1.5 g/L LiCl in agar): No
- Effect on Fruiting body development (C. cinerea [10]; 1.5 g/L LiCl under agar (concentration calculated with volume of sum of agar and H2O), 8 days): produced only a few initials and stage 1 primordia; also recorded: Retarded
- Effect on Fruiting body development (C. cinerea [10]; 3 g/L LiCl in agar): absence of fruiting body and No
- Effect on Fruiting body development (C. cinerea [10]; 3 g/L LiCl under agar (concentration calculated with volume of sum of agar and H2O)): No
- Effect on Fruiting body development (C. cinerea [10]; 6 g/L LiCl in agar): No
- Effect on Fruiting body development (C. cinerea [10]; 6 g/L LiCl under agar (concentration calculated with volume of sum of agar and H2O)): No
- Fruiting body initiation (C. cinerea [10]; LiCl concentration higher than 1.5 g/L, in the following 30 days): No initiation was observed
- Fruiting body initiation, dose dependence (C. cinerea [10]; LiCl in agar or under agar): inhibited the fruiting body initiation in a dose-dependent manner

SMILES: O=C([O-])[O-].[Li+].[Li+] [lithium carbonate]
- Lithium carbonate concentration at which fruiting body cannot form (Pleurotus eryngii): higher than 0.75 mM

SMILES: Cc1cnc(-c2cnc(NCCNc3ccc(C#N)cn3)nc2-c2ccc(Cl)cc2Cl)[nH]1.Cl.Cl.Cl [CHIR-99021 HCl, 6-[[2-[[4-(2,4-Dichlorophenyl)-5-(5-methyl-1H-imidazol-2-yl)-2-pyrimidinyl]amino]ethyl]amino]-3-pyridinecarbonitrile trihydrochloride]
- Fruiting body development stage reached (C. cinerea [2]; 1 μM CHIR-99021 HCl, 6 days light/dark cycle at 25° C.): Young fruiting bodies developed
- Fruiting body development stage reached (C. cinerea [2]; 100 μM CHIR-99021 HCl, 6 days light/dark cycle at 25° C.): developed primordium
- Fruiting body development stage reached (C. cinerea [2]; 500 μM CHIR-99021 HCl, 6 days light/dark cycle at 25° C., trihydrochloride): remained arrested in mycelium stage
- Fruiting body development (C. cinerea [11]; 1 uM CHIR-99021 HCl): developed initials
- Fruiting body development (C. cinerea [11]; 100 uM CHIR-99021 HCl): developed initials
- Fruiting body formation (C. cinerea [11]; concentration not given): inhibits fruiting body formation
- Fruiting body development (C. cinerea [11]; higher CHIR-99021 HCl concentration (500 uM group)): inhibited fruiting
